Measured values reported in patent US20160183556A1, “METHOD FOR PRODUCING FEED ADDITIVE CONTAINING SURFACTIN” (SAFT biotechnology com. LTD, priority 2014, published 2016).
≈ marks a conversion by molar mass, not a printed value. Where two headings read alike, the source gives them in different places. Starred links: 1 amine or outer side, 2 acyl side, 3 side chain; linkers in the order of their positions; H or OH if unused. Positions of bridges follow the written chain, without caps; N, C: chain ends. Non-standard residues stand in square brackets, D forms with d. Residues, ends and D or L forms follow the SMILES beside them. X1 = CC(C)CCCCCCCCC[C@H](CC(=O)[*:1])O[*:2]

Columns and labels:
Aspergillus niger = assay: in vitro susceptibility test (MIC), fungal culture; format: cell-based; conditions: read-out: minimum inhibiting concentration (MIC)
Procedure: (§1) To examine whether surfactin has antimicrobial activity, in vitro susceptibility test was conducted.
Aspergillus niger was inoculated onto the MEAIII plate and incubated at 25° C. for 48 hours, the colonies were scraped off into specific culture medium. Bacterial culture was spread onto the MEAIII plate after serial dilution and the number of colonies was calculated, the original concentration was determined to be 1×10^6 CFU/ml. An aliquot of 500 μl of the bacterial culture was add to 500 μl of MEB before diluting the concentration of bacterial culture to 5×10^5 CFU/ml.
(§2) An aliquot of 130 μl of the bacterial culture was added to each well of a 96-well plate, the concentration of bacterial culture was 5×10^5 CFU/ml, 20 μl of surfactin at different concentrations prepared by titration were added and incubated at 37° C. for 16 hours. A spectrophotometer was used to calculate the concentration of bacterial growth and the obtained data was compared with the original value (OD540=1), the concentration of the experimental group that equals to the original value is used as the minimum inhibiting concentration (MIC). Each group was prepared in triplicate and a control group was included.

Vibrio anguillarum = assay: in vitro susceptibility test (MIC); format: cell-based; conditions: 37° C., OD540, read-out: minimum inhibiting concentration (MIC)
Procedure: as §1
(§3) Preparation of bacterial culture of Escherichia coli DH5α, Vibrio harveyi, Vibrio alginolyticus, Vibrio anguillarum, Vibrio salmonicida, Aeromonas hydrophila and Staphylococcus epidermidis by inoculation of these bacteria onto LBA (E. coli·DH5α) or TSA (+1.5% NaCl) and incubation at 37° C. for 16 hours. Later, the colonies were scraped off and dissolved in specific medium; the concentration was adjusted to OD540 of 1 (1×10^9 colonies/c.c. culture medium), 100 μl of bacterial culture were add to 900 μl of LB or TSB (+1.5% NaCl) to give a concentration of […].
as §2

Vibrio salmonicida = assay: in vitro susceptibility test (MIC); format: cell-based; conditions: 37° C., OD540, read-out: minimum inhibiting concentration (MIC)
Procedure: as §1, §3, §2

Escherichia coli DH5α = assay: in vitro susceptibility test (MIC); format: cell-based; conditions: E. coli, 37° C.
Procedure: as §1, §3, §2

[1] = tested on: Staphylococcus epidermidis; assay: in vitro susceptibility test (MIC); format: cell-based; conditions: 37° C., OD540, read-out: minimum inhibiting concentration (MIC)
Procedure: as §1, §3, §2

Vibrio harveyi = assay: in vitro susceptibility test (MIC); format: cell-based; conditions: 37° C., OD540, read-out: minimum inhibiting concentration (MIC)
Procedure: as §1, §3, §2

Vibrio alginolyticus = assay: in vitro susceptibility test (MIC); format: cell-based; conditions: 37° C., OD540, read-out: minimum inhibiting concentration (MIC)
Procedure: as §1, §3, §2

bacterial culture = assay: in vitro susceptibility test (MIC), summary statement of the text; format: cell-based
Procedure: as §1, §3, §2

nervous necrosis virus = assay: effect of surfactin on morphology of virus particles (transmission electron microscope)
Procedure: Surfactin was dissolved in sterilized water and the solution was filtered with a 0.2 μm filter membrane, followed by dilution of dissolved surfactin in 1% FBS-L15 to give diluted surfactin solution at the concentrations of 40 μg/ml and […]. The surfactin treatment group: surfactin and virus in the volume ratio of 1:1 were mixed. Control group: 1% FBS-L15 culture medium with NNV culture were mixed and incubated at 28° C. for 1 day before examination under a transmission electron microscope (Hitachi H-600). An aliquot of 6 μl of the surfactin treatment group was dropped onto a copper mesh to allow precipitation of the virus for about 10 minutes before been stained in 1% phosphotungstic acid (PTA, Sigma) at pH 7.4. After staining, excess mixture was removed with filter paper and incubated at room temperature for 30 minutes. The sample was examined after the copper mesh was air-dried. The voltage used for transmission electron microscope was 75 KV and the exposure time of the film was 4 seconds. The removed negative film was placed on the rack and soaked in the developer D19 for 4 minutes to develop the image. After completion of development, the film was soaked in 0.33% glacial acetic acid to stop the reaction followed by 10 minutes in fixative. Finally, excess chemicals were removed by placing the film under running water for 60 minutes before drying.

[2] = surfactin 20 μM; reduced from 72 mN/m; cited from earlier work
Aeromonas hydrophila = assay: in vitro susceptibility test (MIC); format: cell-based; conditions: 16 h, 37° C., OD540, read-out: minimum inhibiting concentration (MIC)
Procedure: as §1, §3, §2

Iridovirus = assay: effect of surfactin on morphology of virus particles (transmission electron microscope)

Row | SMILES | MIC (Aspergillus niger) | MIC (Vibrio anguillarum; 16 hours) | MIC (Vibrio salmonicida; 16 hours) | MIC (Escherichia coli DH5α; 16 hours, OD540, read-out: minimum inhibiting concentration (MIC)) | MIC ([1]; 16 hours) | MIC (Vibrio harveyi; 16 hours) | MIC (Vibrio alginolyticus; 16 hours) | MIC (bacterial culture) | morphology of nervous necrosis virus particles (nervous necrosis virus; 40 μg/ml surfactin + nervous necrosis virus, FIG. 2A (D)) | morphology of nervous necrosis virus particles (nervous necrosis virus; 100 μg/ml surfactin + nervous necrosis virus, FIG. 2A (E)) | surface tension of water [2] | MIC (Vibrio anguillarum; 16 h) | MIC (Aeromonas hydrophila) | MIC (Vibrio salmonicida; Aliivibrio salmonicida, 16 h) | MIC (Escherichia coli DH5α; Escherichia coli, 16 h, OD540, read-out: minimum inhibiting concentration (MIC)) | MIC ([1]; 16 h) | MIC (Vibrio harveyi; 16 h) | MIC (Vibrio alginolyticus; 16 h) | morphology of Iridovirus particles (Iridovirus; 10 μg/ml surfactin + Iridovirus, FIG. 2B (B)) | morphology of Iridovirus particles (Iridovirus; 40 μg/ml surfactin + Iridovirus, FIG. 2B (C))
1 | CC(C)CCCCCCCCC[C@@H]1CC(=O)N[C@@H](CCC(=O)O)C(=O)N[C@@H](CC(C)C)C(=O)N[C@H](CC(C)C)C(=O)N[C@@H](C(C)C)C(=O)N[C@@H](CC(=O)O)C(=O)N[C@H](CC(C)C)C(=O)N[C@@H](CC(C)C)C(=O)O1 [surfactin produced by the high-yield mutant strain of Bacill] (EL[dL]VD[dL]L; linker N-C via X1) | 128.7 µM (≈ 133 µg/mL) | 96.5 µM (≈ 100 µg/mL) | 96.5 µM (≈ 100 µg/mL) | 96.5 µM (≈ 100 µg/mL) | 96.5 µM (≈ 100 µg/mL) | 96.5 µM (≈ 100 µg/mL) | 96.5 µM (≈ 100 µg/mL) |  |  |  |  |  |  |  |  |  |  |  |  | 
2 | CC(C)CCCCCCCCC[C@@H]1CC(=O)N[C@@H](CCC(=O)O)C(=O)N[C@@H](CC(C)C)C(=O)N[C@H](CC(C)C)C(=O)N[C@@H](C(C)C)C(=O)N[C@@H](CC(=O)O)C(=O)N[C@H](CC(C)C)C(=O)N[C@@H](CC(C)C)C(=O)O1 [surfactin] (EL[dL]VD[dL]L; linker N-C via X1) | 193 µM (≈ 200 µg/mL) |  |  |  |  |  |  | 96.5 µM (≈ 100 µg/mL) | normal viral particles | abnormal viral particles | 27 mN/m | 129 µM (≈ 133 µg/mL) | 129 µM (≈ 133 µg/mL) | 129 µM (≈ 133 µg/mL) | 193 µM (≈ 200 µg/mL) | 129 µM (≈ 133 µg/mL) | 129 µM (≈ 133 µg/mL) | 129 µM (≈ 133 µg/mL) | the appearance of said virus has changed | adhesion between surfactin and viruses is observed
